Measured values published in patent publication US7868026B2, “Therapeutic compounds” (Pfizer Inc., priority 2005, dated 2011).
Like-named read-outs stand apart in the source and are kept apart here.

How the values were obtained:
Format in all cases: biochemical
CYP3A4 [1] = target: T1, CYP3A4 (Homo sapiens, UniProt P08684); assay: Determination of compound Kiapp against recombinant CYP3A4 enzyme (BFC fluorescent substrate)
Outline: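 Kiapp derived from initial velocities over the first 5 min of BFC (5 uM) oxidation, using Morrison's tight-binding equation for non-partial and Szedlacsek's for partial inhibitors. Inhibitor first pre-incubated ≥30 min with CYP3A4 (5.5 or 8 nM, ±b5) in pH 7.0 phosphate/TCEP/2% DMF at room temperature; 200 uM NADPH initiated.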

CYP3A4 [2] = target: T1, CYP3A4; assay: Determination of IC50 against CYP3A4 by measurement of inhibition of testosterone metabolism (human liver microsomes, 6-β-OH-testosterone by LC-MS/MS); parameters: 0.1 mg/mL human liver microsomes; settings: read-out: IC50 (Testo.)
Outline: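 6-β-OH-testosterone formation was read by LC-MS/MS (MRM, internal standard, standard curve) after eight minutes. Reaction contained testosterone 25 μM, NADPH 1 mM and microsomal protein 0.1 mg/mL in pH 7.4 potassium phosphate (100 mM).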

CYP3A4 [3] = target: T1, CYP3A4; assay: Determination of IC50 against CYP3A4 by measurement of inhibition of midazolam metabolism (human liver microsomes, 1-hydroxymidazolam by LC-MS/MS); parameters: 0.1 mg/mL human liver microsomes; settings: 2 μM midazolam, 0.1 mg/mL human liver microsomes
Outline: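 Human liver microsomes (0.1 mg/mL) incubated 8 min with 2 μM midazolam and 1 mM NADPH in 100 mM potassium phosphate, pH 7.4. 1-Hydroxymidazolam quantified by LC-MS/MS (MRM) as peak area ratio to internal standard against a metabolite standard curve.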

[4] = Baculo. enzyme preparation, read-out: Kiapp (BFC, Baculo.)
[5] = Super. enzyme preparation, read-out: Kiapp (BFC, Super.)

T1 sequence (P08684 whole entry): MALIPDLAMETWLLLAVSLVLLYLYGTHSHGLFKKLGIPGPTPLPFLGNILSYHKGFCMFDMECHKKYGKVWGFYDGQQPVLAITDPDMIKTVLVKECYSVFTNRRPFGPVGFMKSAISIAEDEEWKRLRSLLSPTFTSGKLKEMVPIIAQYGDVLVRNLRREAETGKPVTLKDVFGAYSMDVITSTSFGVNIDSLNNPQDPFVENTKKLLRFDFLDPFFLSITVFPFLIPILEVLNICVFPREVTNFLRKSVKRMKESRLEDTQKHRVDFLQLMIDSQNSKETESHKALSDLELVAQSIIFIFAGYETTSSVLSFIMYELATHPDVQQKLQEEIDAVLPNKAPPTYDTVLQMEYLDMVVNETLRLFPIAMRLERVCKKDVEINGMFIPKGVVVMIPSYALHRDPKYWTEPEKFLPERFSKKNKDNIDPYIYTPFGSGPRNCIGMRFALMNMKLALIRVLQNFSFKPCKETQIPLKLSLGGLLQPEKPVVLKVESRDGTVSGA

SMILES	Ki (CYP3A4 [1]; [4]) [nM]	Ki (CYP3A4 [1]; [5]) [nM]	IC50 (CYP3A4 [2]) [nM]	IC50 (CYP3A4 [3]) [nM]
CCCCCN(C)C(=O)c1ccccc1S(=O)(=O)Nc1cnccc1OC [Example 278, 2-{[(4-methoxypyridin-3-yl)amino]sulfonyl}-N-methyl-N-pentylbenzamide]	131	11.9	66	31
COc1cncc(NS(=O)(=O)c2ccccc2C(=O)N2CCCC(C)(C)C2)c1 [Example 391, 2-[(3,3-dimethylpiperidin-1-yl)carbonyl]-N-(5-methoxypyridin-3-yl)benzenesulfonamide]	317	6.26	63	27
Cc1ccncc1NS(=O)(=O)c1ccccc1C(=O)N(C)Cc1ccc(F)c(F)c1 [Example 172, N-(3,4-difluorobenzyl)-N-methyl-2-{[(4-methylpyridin-3-yl)amino]sulfonyl}benzamide]	173	21.7	34	44
COc1ccncc1NS(=O)(=O)c1ccccc1C(=O)NCc1ccc(F)c(C(F)(F)F)c1 [Example 255, N-[4-fluoro-3-(trifluoromethyl)benzyl]-2-{[(4-methoxypyridin-3-yl)amino]sulfonyl}benzamide]	22.7	4.06	9	7
CCCCCN(C)C(=O)c1ccccc1S(=O)(=O)Nc1cncc(OC)c1 [Example 339, 2-{[(5-methoxypyridin-3-yl)amino]sulfonyl}-N-methyl-N-pentylbenzamide]	35.4	6.1	26	14
O=C(NCc1ccc(F)c(F)c1)c1ccccc1S(=O)(=O)Nc1cccnc1 [Example 85, N-(3,4-difluorobenzyl)-2-[(pyridin-3-ylamino)sulfonyl]benzamide]	105	12.1	41	16
CN(c1cccnc1)S(=O)(=O)c1ccccc1C(=O)N1CCOCC1 [Example 326, N-methyl-2-(morpholin-4-ylcarbonyl)-N-pyridin-3-ylbenzenesulfonamide]	884	273	164	132
Cc1cncc(NS(=O)(=O)c2ccccc2C(=O)NC(C)C(C)C)c1 (stereo not drawn) [Example 317, N-(1,2-dimethylpropyl)2{[(5-methylpyridin-3-yl)amino]sulfonyl}benzamide]	144	51.6	19	15
COc1cncc(NS(=O)(=O)c2ccccc2C(=O)NCc2cccc(Cl)c2F)c1 [Example 175, N-(3-chloro-2-fluorobenzyl)-2-{[(5-methoxypyridin-3-yl)amino]sulfonyl}benzamide]	24	1.3	9	9
COc1cncc(NS(=O)(=O)c2ccccc2C(=O)N(C)CCOc2ccccc2)c1 [Example 173, 2-{[(5-methoxypyridin-3-yl)amino]sulfonyl}-N-methyl-N-(2-phenoxyethyl)benzamide]	104	9.9	18	16
COc1cncc(NS(=O)(=O)c2ccccc2C(=O)NC2CCCCC2)c1 [Example 187, N-cyclohexyl-2-{[(5-methoxypyridin-3-yl)amino]sulfonyl}benzamide]	257	35.9	28	22
Cc1ccncc1NS(=O)(=O)c1ccccc1C(=O)NCc1ccc(S(C)(=O)=O)cc1 [Example 169, 2-{[(4-methylpyridin-3-yl)amino]sulfonyl}-N-[4-(methylsulfonyl)benzyl]benzamide]	> 1000	187	395	139
COCCNC(=O)c1ccccc1S(=O)(=O)Nc1cccnc1 [Example 261, N-(2-methoxyethyl)-2-[(pyridin-3-ylamino)sulfonyl]benzamide]	> 1000	453	627	256
COc1cncc(NS(=O)(=O)c2ccccc2C(=O)NCC2CCCC2)c1 [Example 375, N-(cyclopentylmethyl)-2-{[(5-methoxypyridin-3-yl)amino]sulfonyl}benzamide]	142	31.6	42	22
COc1cncc(NS(=O)(=O)c2ccccc2C(=O)NCCc2ccc(F)cc2F)c1 [Example 191, N-[2-(2,4-difluorophenyl)ethyl]-2-{[(5-methoxypyridin-3-yl)amino]sulfonyl}benzamide]	59.7	5	15	10
CC(C)(C)OC(=O)N1CC2(CCN(C(=O)c3ccccc3S(=O)(=O)Nc3cccnc3)CC2)C1 [Example 10, tert-butyl 7-{2-[(pyridin-3-ylamino)sulfonyl]benzoyl}-2,7-diazaspiro[3.5]nonane-2-carboxylate]	> 1000	558	> 750	279
CCCN(CCOC)C(=O)c1ccccc1S(=O)(=O)Nc1cncc(OC)c1 [Example 246, N-(2-methoxyethyl)-2-{[(5-methoxypyridin-3-yl)amino]sulfonyl}-N-propylbenzamide]	50.3	18.5	72	36
CC(C)(C)OC(=O)N1CCC2(CC1)CN(C(=O)c1ccccc1S(=O)(=O)Nc1cccnc1)C2 [Example 11, tert-butyl 2-{2-[(pyridin-3-ylamino)sulfonyl]benzoyl}-2,7-diazaspiro[3.5]nonane-7-carboxylate]	> 1000	563	> 750	> 750
CCOc1cncc(NS(=O)(=O)c2ccccc2C(=O)NCc2ccc(F)c(F)c2)c1 [Example 290, N-(3,4-difluorobenzyl)-2-{[(5-ethoxypyridin-3-yl)amino]sulfonyl}benzamide]	14.6	3.94	16	4
O=C(c1ccccc1S(=O)(=O)Nc1cccnc1)N1Cc2ccccc2C1 [Example 88, 2-(1,3-dihydro-2H-isoindol-2-ylcarbonyl)-N-pyridin-3-ylbenzenesulfonamide]	362	47.6	28	185
O=C(c1ccccc1S(=O)(=O)Nc1cccnc1)N1CCc2ccccc2C1 [Example 83, 2-(3,4-dihydroisoquinolin-2(1H)-ylcarbonyl)-N-pyridin-3-ylbenzenesulfonamide]	127	12.8	28	35
COc1cncc(NS(=O)(=O)c2ccccc2C(=O)N(C)C(C)C)c1 [Example 282, N-isopropyl-2-{[(5-methoxypyridin-3-yl)amino]sulfonyl}-N-methylbenzamide]	330	57.7	62	49
CCCCN(C)C(=O)c1ccccc1S(=O)(=O)Nc1cncc(C)c1 [Example 352, N-butyl-N-methyl-2-{[(5-methylpyridin-3-yl)amino]sulfonyl}benzamide]	70.4	22.6	31	16
O=C(NCCCc1ccccn1)c1ccccc1S(=O)(=O)Nc1cccnc1 [Example 69, 2-[(pyridin-3-ylamino)sulfonyl]-N-(3-pyridin-2-ylpropyl)benzamide]	> 1000		179	105
Cc1cccc(CCNC(=O)c2ccccc2S(=O)(=O)Nc2cccnc2)c1 [Example 76, N-[2-(3-methylphenyl)ethyl]-2-[(pyridin-3-ylamino)sulfonyl]benzamide]	76.7	9.4	29	24
CCCCNC(=O)c1ccccc1S(=O)(=O)Nc1cncc(C)c1 [Example 31, N-butyl-2-{[(5-methylpyridin-3-yl)amino]sulfonyl}benzamide]	70.1		38	23
COc1cncc(NS(=O)(=O)c2ccccc2C(=O)N(C)CCC(C)C)c1 [Example 338, 2-{[(5-methoxypyridin-3-yl)amino]sulfonyl}-N-methyl-N-(3-methylbutyl)benzamide]	24	6.8	30	23
N#Cc1cncc(NS(=O)(=O)c2ccccc2C(=O)N2CCCCC2)c1 [Example 22, N-(5-cyanopyridin-3-yl)-2-(piperidin-1-ylcarbonyl)benzenesulfonamide]	> 1000		> 750	> 750
Cc1ccncc1NS(=O)(=O)c1ccccc1C(=O)N(C)CCC(C)C [Example 164, N-methyl-N-(3-methylbutyl)-2-{[(4-methylpyridin-3-yl)amino]sulfonyl}benzamide]	281	34.3	47	24
O=C(NCCc1ccccc1)c1ccccc1S(=O)(=O)Nc1cccnc1 [Example 77, N-(2-phenylethyl)-2-[(pyridin-3-ylamino)sulfonyl]benzamide]	131	5.6	192	23
